# Measurements taken from ChEMBL document CHEMBL1926681, “Novel inhibitors of epidermal growth factor receptor: (4-(Arylamino)-7H-pyrrolo[2,3-d]pyrimidin-6-yl)(1H-indol-2-yl)methanones and (1H-indol-2-yl)(4-(phenylamino)thieno[2,3-d]pyrimidin-6-yl)methanones” (Bioorg Med Chem, 2012).
# The source made the active and inactive calls. No cut-off for these calls is given here.
# How the values were obtained:
# [1] = Cytotoxicity against human RXF 486L cells after 4 days by propidium iodide staining-based fluorometric analysis; assay type: functional, cell-based; conditions: 96 h
# [2] = target: Tyrosine-protein kinase ABL1 (Homo sapiens) (UniProt P00519); experiment: Inhibition of ABL1 using poly(Ala, Glu, Lys, Tyr) as substrate and [gamma33P]ATP at 1 uM after 60 mins by scintillation counting
# [3] = tested on: MKN-45; experiment: Cytotoxicity against human MKN45 cells after 4 days by propidium iodide staining-based fluorometric analysis; assay type: functional, cell-based; conditions: MKN-45, 96 h
# [4] = tested on: DU-145; experiment: Cytotoxicity against human DU145 cells after 4 days by propidium iodide staining-based fluorometric analysis; assay type: functional, cell-based; conditions: DU-145, 96 h
# [5] = Cytotoxicity against human RXF 1781L cells after 4 days by propidium iodide staining-based fluorometric analysis; assay type: functional, cell-based; conditions: 96 h
# [6] = Cytotoxicity against human BXF T24 cells after 4 days by propidium iodide staining-based fluorometric analysis; assay type: functional, cell-based; conditions: T-24, 96 h
# [7] = tested on: HT-29; experiment: Cytotoxicity against human HT-29 cells after 4 days by propidium iodide staining-based fluorometric analysis; assay type: functional, cell-based; conditions: HT-29, 96 h
# [8] = Cytotoxicity against human LXFA 289L cells after 4 days by propidium iodide staining-based fluorometric analysis; assay type: functional, cell-based; conditions: 96 h
# [9] = tested on: LNCaP; experiment: Cytotoxicity against human LNCAP cells after 4 days by propidium iodide staining-based fluorometric analysis; assay type: functional, cell-based; conditions: 96 h
# [10] = target: T1, Epidermal growth factor receptor (Homo sapiens, UniProt P00533); experiment: Inhibition of EGFR using poly(Glu,Tyr)4:1 as substrate and [gamma33P]ATP after 60 mins by scintillation counting
# [11] = Cytotoxicity against human LXFA 526L cells after 4 days by propidium iodide staining-based fluorometric analysis; assay type: functional, cell-based; conditions: 96 h
# [12] = Cytotoxicity against human BXF 1218L cells after 4 days by propidium iodide staining-based fluorometric analysis; assay type: functional, cell-based; conditions: 96 h
# [13] = Cytotoxicity against human DIFI cells after 4 days by propidium iodide staining-based fluorometric analysis; assay type: functional, cell-based; conditions: 96 h
# [14] = Cytotoxicity against human BXF 1352L cells after 4 days by propidium iodide staining-based fluorometric analysis; assay type: functional, cell-based; conditions: 96 h
# [15] = Cytotoxicity against human LXFA 629L cells after 4 days by propidium iodide staining-based fluorometric analysis; assay type: functional, cell-based; conditions: 96 h
# [16] = Cytotoxicity against human LXFL 1121L cells after 4 days by propidium iodide staining-based fluorometric analysis; assay type: functional, cell-based; conditions: 96 h
# [17] = Cytotoxicity against human LXFL 529L cells after 4 days by propidium iodide staining-based fluorometric analysis; assay type: functional, cell-based; conditions: 96 h
# [18] = Cytotoxicity against human PAXF 1657L cells after 4 days by propidium iodide staining-based fluorometric analysis; assay type: functional, cell-based; conditions: 96 h
# [19] = tested on: RKO; experiment: Cytotoxicity against human RKO cells after 4 days by propidium iodide staining-based fluorometric analysis; assay type: functional, cell-based; conditions: 96 h
# [20] = target: Vascular endothelial growth factor receptor 2 (Homo sapiens) (UniProt P35968); experiment: Inhibition of VEGFR2 using poly(Glu,Tyr)4:1 as substrate and [gamma33P]ATP at 1 uM after 60 mins by scintillation counting
# [21] = tested on: CAL-27; experiment: Cytotoxicity against human CAL27 cells after 4 days by propidium iodide staining-based fluorometric analysis; assay type: functional, cell-based; conditions: CAL-27, 96 h
# [22] = tested on: SAOS-2; experiment: Cytotoxicity against human Saos2 cells after 4 days by propidium iodide staining-based fluorometric analysis; assay type: functional, cell-based; conditions: SAOS-2, 96 h
# [23] = Cytotoxicity against human PXF 1118L cells after 4 days by propidium iodide staining-based fluorometric analysis; assay type: functional, cell-based; conditions: 96 h
# [24] = Cytotoxicity against human PXF 1752L cells after 4 days by propidium iodide staining-based fluorometric analysis; assay type: functional, cell-based; conditions: 96 h
# [25] = Cytotoxicity against human MDA231 cells after 4 days by propidium iodide staining-based fluorometric analysis; assay type: functional, cell-based; conditions: MDA-MB-231, 96 h
# [26] = tested on: TE-671; experiment: Cytotoxicity against human TE671 cells after 4 days by propidium iodide staining-based fluorometric analysis; assay type: functional, cell-based; conditions: TE-671, 96 h
# [27] = Cytotoxicity against human MEXF 462NL cells after 4 days by propidium iodide staining-based fluorometric analysis; assay type: functional, cell-based; conditions: 96 h
# [28] = tested on: HCT-116; experiment: Cytotoxicity against human HCT116 cells after 4 days by propidium iodide staining-based fluorometric analysis; assay type: functional, cell-based; conditions: HCT-116, 96 h
# [29] = Cytotoxicity against human CXF 269L cells after 4 days by propidium iodide staining-based fluorometric analysis; assay type: functional, cell-based; conditions: 96 h
# [30] = Cytotoxicity against human LIXF 575L cells after 4 days by propidium iodide staining-based fluorometric analysis; assay type: functional, cell-based; conditions: 96 h
# [31] = tested on: OVCAR-3; experiment: Cytotoxicity against human OVCAR3 cells after 4 days by propidium iodide staining-based fluorometric analysis; assay type: functional, cell-based; conditions: OVCAR-3, 96 h
# [32] = Cytotoxicity against human OVXF 899L cells after 4 days by propidium iodide staining-based fluorometric analysis; assay type: functional, cell-based; conditions: 96 h
# [33] = Cytotoxicity against human MAXF 401NL cells after 4 days by propidium iodide staining-based fluorometric analysis; assay type: functional, cell-based; conditions: 96 h
# [34] = Cytotoxicity against human MEXF 1341L cells after 4 days by propidium iodide staining-based fluorometric analysis; assay type: functional, cell-based; conditions: 96 h
# [35] = target: Receptor tyrosine-protein kinase erbB-2 (Homo sapiens) (UniProt P04626); experiment: Inhibition of Erbb2 using poly(Glu,Tyr)4:1 as substrate and [gamma33P]ATP at 1 uM after 60 mins by scintillation counting
# [36] = Cytotoxicity against human PC3M cells after 4 days by propidium iodide staining-based fluorometric analysis; assay type: functional, cell-based; conditions: PC-3M, 96 h
# [37] = tested on: PANC-1; experiment: Cytotoxicity against human PANC1 cells after 4 days by propidium iodide staining-based fluorometric analysis; assay type: functional, cell-based; conditions: PANC-1, 96 h
# [38] = target: T1, Epidermal growth factor receptor; experiment: Inhibition of EGFR using poly(Glu,Tyr)4:1 as substrate and [gamma33P]ATP at 1 uM after 60 mins by scintillation counting
# [39] = Cytotoxicity against human GXF251L cells after 4 days by propidium iodide staining-based fluorometric analysis; assay type: functional, cell-based; conditions: GXF 251L, 96 h
# [40] = Cytotoxicity against human MEXF 276L cells after 4 days by propidium iodide staining-based fluorometric analysis; assay type: functional, cell-based; conditions: MEXF276L, 96 h
# [41] = tested on: MCF7; experiment: Cytotoxicity against human MCF7 cells after 4 days by propidium iodide staining-based fluorometric analysis; assay type: functional, cell-based; conditions: MCF7, 96 h
# [42] = Cytotoxicity against human PAXF 546L cells after 4 days by propidium iodide staining-based fluorometric analysis; assay type: functional, cell-based; conditions: 96 h
# [43] = Cytotoxicity against human RXF 393NL cells after 4 days by propidium iodide staining-based fluorometric analysis; assay type: functional, cell-based; conditions: 96 h
# [44] = target: Hepatocyte growth factor receptor (Homo sapiens) (UniProt P08581); experiment: Inhibition of MET using poly(Ala, Glu, Lys, Tyr) as substrate and [gamma33P]ATP at 1 uM after 60 mins by scintillation counting
# [45] = tested on: CWR22R; experiment: Cytotoxicity against human 22Rv1 cells after 4 days by propidium iodide staining-based fluorometric analysis; assay type: functional, cell-based; conditions: 22Rv1, 96 h
# [46] = Cytotoxicity against human UXF 1138L cells after 4 days by propidium iodide staining-based fluorometric analysis; assay type: functional, cell-based; conditions: 96 h
# [47] = tested on: NCI-H460; experiment: Cytotoxicity against human H460 cells after 4 days by propidium iodide staining-based fluorometric analysis; assay type: functional, cell-based; conditions: NCI-H460, 96 h
# [48] = Cytotoxicity against human PXF 698L cells after 4 days by propidium iodide staining-based fluorometric analysis; assay type: functional, cell-based; conditions: 96 h
# Hepatocyte growth factor receptor (Homo sapiens), sequence (P08581 whole entry): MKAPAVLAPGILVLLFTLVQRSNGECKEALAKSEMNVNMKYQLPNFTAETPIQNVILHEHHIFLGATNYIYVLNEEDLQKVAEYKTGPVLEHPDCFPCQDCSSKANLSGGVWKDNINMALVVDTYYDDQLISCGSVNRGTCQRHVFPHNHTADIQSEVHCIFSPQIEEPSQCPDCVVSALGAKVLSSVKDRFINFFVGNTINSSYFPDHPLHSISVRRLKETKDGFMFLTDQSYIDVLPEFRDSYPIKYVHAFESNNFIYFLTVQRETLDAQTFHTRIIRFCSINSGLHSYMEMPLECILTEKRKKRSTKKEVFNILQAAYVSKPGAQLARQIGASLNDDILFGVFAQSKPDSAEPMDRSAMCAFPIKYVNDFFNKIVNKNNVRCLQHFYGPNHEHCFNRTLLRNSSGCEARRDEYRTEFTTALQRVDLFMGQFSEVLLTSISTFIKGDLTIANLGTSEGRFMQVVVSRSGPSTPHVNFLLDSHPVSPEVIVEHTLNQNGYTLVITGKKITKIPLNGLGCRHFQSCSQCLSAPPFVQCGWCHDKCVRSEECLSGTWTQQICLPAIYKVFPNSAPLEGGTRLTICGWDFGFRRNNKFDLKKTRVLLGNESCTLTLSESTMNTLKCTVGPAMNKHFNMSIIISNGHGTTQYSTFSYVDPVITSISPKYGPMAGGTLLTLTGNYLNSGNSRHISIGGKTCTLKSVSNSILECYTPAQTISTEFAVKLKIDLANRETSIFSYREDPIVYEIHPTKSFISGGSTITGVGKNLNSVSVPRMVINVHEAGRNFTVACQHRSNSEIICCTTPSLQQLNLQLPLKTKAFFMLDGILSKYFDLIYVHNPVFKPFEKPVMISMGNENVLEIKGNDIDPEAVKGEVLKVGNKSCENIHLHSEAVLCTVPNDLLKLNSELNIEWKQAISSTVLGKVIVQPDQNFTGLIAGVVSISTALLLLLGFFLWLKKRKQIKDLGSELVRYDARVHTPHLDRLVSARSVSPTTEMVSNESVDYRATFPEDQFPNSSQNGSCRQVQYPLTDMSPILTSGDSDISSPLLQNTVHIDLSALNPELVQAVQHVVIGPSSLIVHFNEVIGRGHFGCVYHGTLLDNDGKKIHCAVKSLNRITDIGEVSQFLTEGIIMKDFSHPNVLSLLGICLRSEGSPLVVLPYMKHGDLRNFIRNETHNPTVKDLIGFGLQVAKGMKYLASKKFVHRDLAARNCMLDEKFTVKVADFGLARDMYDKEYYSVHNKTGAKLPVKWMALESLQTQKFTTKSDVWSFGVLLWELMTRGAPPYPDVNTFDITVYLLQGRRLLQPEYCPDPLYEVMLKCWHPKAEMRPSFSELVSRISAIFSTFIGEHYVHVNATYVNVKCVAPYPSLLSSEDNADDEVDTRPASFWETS
# T1 sequence (P00533 whole entry): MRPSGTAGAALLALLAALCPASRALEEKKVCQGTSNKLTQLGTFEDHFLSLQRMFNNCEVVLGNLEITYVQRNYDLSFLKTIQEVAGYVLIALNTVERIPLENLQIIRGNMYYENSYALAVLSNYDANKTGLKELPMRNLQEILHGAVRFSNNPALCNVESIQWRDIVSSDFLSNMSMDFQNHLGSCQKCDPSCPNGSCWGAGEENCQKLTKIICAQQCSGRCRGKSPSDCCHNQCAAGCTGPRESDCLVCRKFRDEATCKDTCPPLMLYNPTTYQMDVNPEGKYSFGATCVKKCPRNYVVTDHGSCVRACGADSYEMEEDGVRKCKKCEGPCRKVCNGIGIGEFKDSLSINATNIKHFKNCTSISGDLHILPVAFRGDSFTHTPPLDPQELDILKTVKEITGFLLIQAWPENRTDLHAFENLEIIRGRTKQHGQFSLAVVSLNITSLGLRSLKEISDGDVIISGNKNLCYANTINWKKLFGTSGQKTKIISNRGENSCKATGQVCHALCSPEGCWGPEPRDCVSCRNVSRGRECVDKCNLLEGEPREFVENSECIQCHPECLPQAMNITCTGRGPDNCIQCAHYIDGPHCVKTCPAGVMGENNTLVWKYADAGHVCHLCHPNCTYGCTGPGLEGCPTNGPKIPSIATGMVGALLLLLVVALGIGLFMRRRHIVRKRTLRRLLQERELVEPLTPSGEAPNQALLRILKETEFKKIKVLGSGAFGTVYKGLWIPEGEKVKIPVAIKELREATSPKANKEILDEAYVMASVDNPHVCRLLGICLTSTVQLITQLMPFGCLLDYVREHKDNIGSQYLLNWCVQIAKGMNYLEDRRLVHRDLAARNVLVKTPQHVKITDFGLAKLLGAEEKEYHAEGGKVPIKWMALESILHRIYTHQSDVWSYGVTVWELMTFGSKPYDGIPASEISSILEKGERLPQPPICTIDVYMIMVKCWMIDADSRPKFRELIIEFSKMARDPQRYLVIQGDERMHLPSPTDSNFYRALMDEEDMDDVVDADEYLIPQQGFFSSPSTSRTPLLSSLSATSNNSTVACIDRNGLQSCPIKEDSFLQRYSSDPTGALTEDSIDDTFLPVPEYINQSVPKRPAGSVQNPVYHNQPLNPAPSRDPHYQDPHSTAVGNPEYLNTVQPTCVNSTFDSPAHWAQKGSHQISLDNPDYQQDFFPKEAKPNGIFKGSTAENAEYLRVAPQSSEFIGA
# Tyrosine-protein kinase ABL1 (Homo sapiens), sequence (P00519 whole entry): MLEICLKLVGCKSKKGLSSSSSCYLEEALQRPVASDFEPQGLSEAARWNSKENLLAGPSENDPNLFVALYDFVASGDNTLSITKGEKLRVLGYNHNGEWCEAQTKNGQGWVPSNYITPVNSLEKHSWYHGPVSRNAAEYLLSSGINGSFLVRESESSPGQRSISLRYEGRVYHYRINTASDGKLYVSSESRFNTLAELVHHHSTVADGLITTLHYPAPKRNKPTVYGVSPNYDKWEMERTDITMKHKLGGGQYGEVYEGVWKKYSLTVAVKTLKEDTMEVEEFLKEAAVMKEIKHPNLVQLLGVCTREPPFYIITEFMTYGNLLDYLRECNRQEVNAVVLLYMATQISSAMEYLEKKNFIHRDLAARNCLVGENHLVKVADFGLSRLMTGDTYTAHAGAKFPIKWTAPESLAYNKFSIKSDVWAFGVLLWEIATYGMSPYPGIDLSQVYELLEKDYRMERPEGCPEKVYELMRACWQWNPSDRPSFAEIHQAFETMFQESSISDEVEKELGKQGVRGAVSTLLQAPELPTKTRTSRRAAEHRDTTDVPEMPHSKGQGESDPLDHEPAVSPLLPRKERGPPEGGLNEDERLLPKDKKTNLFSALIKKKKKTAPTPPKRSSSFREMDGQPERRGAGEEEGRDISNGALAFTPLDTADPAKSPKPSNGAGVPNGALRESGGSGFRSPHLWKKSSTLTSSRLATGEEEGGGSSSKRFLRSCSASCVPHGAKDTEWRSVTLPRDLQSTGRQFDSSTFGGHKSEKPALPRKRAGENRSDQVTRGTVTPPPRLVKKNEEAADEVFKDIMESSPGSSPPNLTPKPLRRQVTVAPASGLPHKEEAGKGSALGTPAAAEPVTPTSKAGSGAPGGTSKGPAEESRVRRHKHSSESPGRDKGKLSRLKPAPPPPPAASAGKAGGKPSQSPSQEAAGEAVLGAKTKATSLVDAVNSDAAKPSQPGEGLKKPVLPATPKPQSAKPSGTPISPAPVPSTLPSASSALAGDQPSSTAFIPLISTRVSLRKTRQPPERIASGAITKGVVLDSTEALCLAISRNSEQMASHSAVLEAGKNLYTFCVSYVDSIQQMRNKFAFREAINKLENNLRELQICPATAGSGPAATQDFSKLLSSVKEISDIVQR
# Vascular endothelial growth factor receptor 2 (Homo sapiens), sequence (P35968 whole entry): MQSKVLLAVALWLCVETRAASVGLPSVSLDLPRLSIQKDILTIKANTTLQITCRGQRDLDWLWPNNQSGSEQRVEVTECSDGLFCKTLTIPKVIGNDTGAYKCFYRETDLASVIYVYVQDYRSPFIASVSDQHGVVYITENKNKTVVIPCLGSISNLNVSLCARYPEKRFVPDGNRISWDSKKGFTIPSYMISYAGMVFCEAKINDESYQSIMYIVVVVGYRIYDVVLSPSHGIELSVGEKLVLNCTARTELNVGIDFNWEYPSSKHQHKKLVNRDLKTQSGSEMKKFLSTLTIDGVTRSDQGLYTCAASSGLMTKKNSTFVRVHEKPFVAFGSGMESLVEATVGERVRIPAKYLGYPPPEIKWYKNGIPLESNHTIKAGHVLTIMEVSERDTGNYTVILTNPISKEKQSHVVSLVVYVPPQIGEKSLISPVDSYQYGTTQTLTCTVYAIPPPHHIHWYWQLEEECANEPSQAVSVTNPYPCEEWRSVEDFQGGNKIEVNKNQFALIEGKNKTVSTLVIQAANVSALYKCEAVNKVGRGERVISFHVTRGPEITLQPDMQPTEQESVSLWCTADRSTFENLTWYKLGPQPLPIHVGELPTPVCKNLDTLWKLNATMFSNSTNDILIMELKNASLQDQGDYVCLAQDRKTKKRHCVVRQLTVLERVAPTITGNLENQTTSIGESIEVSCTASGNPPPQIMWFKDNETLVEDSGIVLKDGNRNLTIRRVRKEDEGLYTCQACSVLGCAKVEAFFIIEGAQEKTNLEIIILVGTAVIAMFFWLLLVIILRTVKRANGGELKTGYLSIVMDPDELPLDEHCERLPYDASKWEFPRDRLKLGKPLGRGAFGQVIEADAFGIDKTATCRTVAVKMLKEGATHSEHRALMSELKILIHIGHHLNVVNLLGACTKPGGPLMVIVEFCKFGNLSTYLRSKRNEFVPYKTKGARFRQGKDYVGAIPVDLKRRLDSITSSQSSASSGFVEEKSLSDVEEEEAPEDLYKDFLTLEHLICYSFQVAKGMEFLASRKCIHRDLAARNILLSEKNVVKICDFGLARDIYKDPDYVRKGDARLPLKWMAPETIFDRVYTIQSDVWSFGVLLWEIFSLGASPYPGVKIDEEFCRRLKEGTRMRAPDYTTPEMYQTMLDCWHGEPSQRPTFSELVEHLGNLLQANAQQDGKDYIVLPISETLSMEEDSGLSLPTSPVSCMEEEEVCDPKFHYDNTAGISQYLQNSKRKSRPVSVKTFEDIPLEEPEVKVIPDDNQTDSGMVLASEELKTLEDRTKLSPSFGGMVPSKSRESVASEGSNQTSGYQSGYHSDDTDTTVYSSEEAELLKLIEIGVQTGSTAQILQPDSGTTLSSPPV
smiles,measurement,setting,value
COc1ccc2[nH]c(C(=O)c3cc4c(Nc5ccc(F)c(Cl)c5)ncnc4s3)cc2c1,IC50,[1],10.2 µM
same,inhibition,[2],inactive
same,IC50,[3],38.2 µM
same,IC50,[4],19.4 µM
same,IC50,[5],30.4 µM
same,IC50,[6],17.8 µM
same,IC50,[7],9.8 µM
same,IC50,[8],7.1 µM
same,IC50,[9],32.5 µM
same,IC50,[10],0.00593 µM
same,IC50,[11],28.5 µM
same,IC50,[12],15.4 µM
same,IC50,[13],1 µM
same,IC50,[14],24.8 µM
same,IC50,[15],5 µM
same,IC50,[16],9 µM
same,IC50,[17],14.8 µM
same,IC50,[18],24.6 µM
same,IC50,[19],15.8 µM
same,inhibition,[20],55%
same,IC50,[21],1.6 µM
same,IC50,[22]; read-out: IC50,30.1 µM
same,IC50,[23],62.9 µM
same,IC50,[24],36 µM
same,IC50,[25],17.1 µM
same,IC50,[26],55 µM
same,IC50,[27],16.7 µM
same,IC50,[28],12.1 µM
same,IC50,[29],11.7 µM
same,IC50,[30],9.3 µM
same,IC50,[31],24.6 µM
same,IC50,[32],19 µM
same,IC50,[33],4.2 µM
same,IC50,[34],14.4 µM
same,inhibition,[35],60%
same,IC50,[36],46.3 µM
same,IC50,[37],28.4 µM
same,inhibition,[38],96%
same,IC50,[39],3.9 µM
same,IC50,[40],31 µM
same,IC50,[41],11.3 µM
same,IC50,[42],14.1 µM
same,IC50,[43],21.1 µM
same,inhibition,[44],inactive
same,IC50,[45],11.1 µM
same,IC50,[46],4.9 µM
same,IC50,[47],15 µM
same,IC50,[48],26.7 µM
C#Cc1cccc(Nc2ncnc3cc(OCCOC)c(OCCOC)cc23)c1 [ERLOTINIB],IC50,[1],10 µM
same,inhibition,[2],inactive
same,IC50,[3],76.7 µM
same,IC50,[4],0.966 µM
same,IC50,[5],76.7 µM
same,IC50,[6],13.9 µM
same,IC50,[7],100 µM
same,IC50,[8],1.78 µM
same,IC50,[9],6.63 µM
same,IC50,[11],100 µM
same,IC50,[12],96 µM
same,IC50,[13],0.14 µM
same,IC50,[14],87.8 µM
same,IC50,[15],0.66 µM
same,IC50,[16],34.6 µM
same,IC50,[17],17.4 µM
same,IC50,[18],64.3 µM
same,IC50,[19],100 µM
same,IC50,[21],0.239 µM
same,IC50,[22],21 µM
same,IC50,[23],76.7 µM
same,IC50,[24],31.6 µM
same,IC50,[25],34.5 µM
same,IC50,[26],100 µM
same,IC50,[27],100 µM
same,IC50,[28],65.8 µM
same,IC50,[29],16 µM
same,IC50,[30],47.2 µM
same,IC50,[31],100 µM
same,IC50,[32],8.77 µM
same,IC50,[33],25 µM
same,IC50,[34],30.1 µM
same,IC50,[36],17.2 µM
same,IC50,[37],75.8 µM
same,IC50,[39],0.369 µM
same,IC50,[40],18.6 µM
same,IC50,[41],100 µM
same,IC50,[42],10 µM
same,IC50,[43],45.6 µM
same,inhibition,[44],inactive
same,IC50,[45],100 µM
same,IC50,[46],24.5 µM
same,IC50,[47],74.3 µM
same,IC50,[48],36.4 µM
CS(=O)(=O)CCNCc1ccc(-c2ccc3ncnc(Nc4ccc(OCc5cccc(F)c5)c(Cl)c4)c3c2)o1 [LAPATINIB],IC50,[1],9.1 µM
same,inhibition,[2],inactive
same,IC50,[3],11.5 µM
same,IC50,[4],2.99 µM
same,IC50,[5],7.67 µM
same,IC50,[6],9.65 µM
same,IC50,[7],4.62 µM
same,IC50,[8],5.79 µM
same,IC50,[9],3.68 µM
same,IC50,[11],4.21 µM
same,IC50,[12],11.8 µM
same,IC50,[13],0.235 µM
same,IC50,[14],11.5 µM
same,IC50,[15],2.87 µM
same,IC50,[16],7.73 µM
same,IC50,[17],3.51 µM
same,IC50,[18],11.1 µM
same,IC50,[19],5.35 µM
same,IC50,[21],0.53 µM
same,IC50,[22]; read-out: IC50,9.38 µM
same,IC50,[23],6.86 µM
same,IC50,[24],9.46 µM
same,IC50,[25],7.7 µM
same,IC50,[26],11 µM
same,IC50,[27],10.1 µM
same,IC50,[28],13.1 µM
same,IC50,[29],8.36 µM
same,IC50,[30],7.18 µM
same,IC50,[31],13.4 µM
same,IC50,[32],3.35 µM
same,IC50,[33],5.8 µM
same,IC50,[34],4.85 µM
same,IC50,[36],4.55 µM
same,IC50,[37],8.12 µM
same,IC50,[39],1.48 µM
same,IC50,[40],11.4 µM
same,IC50,[41],4.83 µM
same,IC50,[42],6.12 µM
same,IC50,[43],7.77 µM
same,inhibition,[44],inactive
same,IC50,[45],6.06 µM
same,IC50,[46],4.4 µM
same,IC50,[47],13.5 µM
same,IC50,[48],9.49 µM
C#Cc1cccc(Nc2ncnc3sc(C(=O)c4cc5ccccc5[nH]4)cc23)c1,inhibition,[2],inactive
same,IC50,[10],0.0187 µM
same,inhibition,[20],9%
same,inhibition,[35],60%
same,inhibition,[38],93%
same,inhibition,[44],inactive
